Source: patent publication US6428820B2, “Extracts of Hypericum perforatum and formulations containing them” (Indena S.p.A., priority 1999, dated 2002)
Values after ≈ are worked out from the molar mass of the structure shown.

Columns and labels:
dopamine (DA) uptake = details: inhibition of 3H DA uptake
serotonin (5-HT) uptake = experiment: Inhibition of 3H 5-HT (serotonin) uptake; assay type: biochemical; details: inhibition of 3H 5-HT uptake

| Compound | IC50 3H DA uptake (dopamine (DA) uptake) | IC50 3H-5 HT uptake (serotonin (5-HT) uptake) |
| --- | --- | --- |
| Hyperforin | 1.54 ± 0.23 µg/mL | 4.75 ± 0.79 µg/mL |
| Cc1cc(O)c2c(=O)c3c(O)cc(O)c4c5c(O)cc(O)c6c(=O)c7c(O)cc(CO)c8c1c2c(c34)c(c65)c78 [Pseudo-hypericin] | 1.40 ± 0.13 µg/mL (≈ 2.69 µM) | 27.0 ± 1.1020 µg/mL (≈ 51.9 µM) |
